{"source": "paper PMC8234462", "about": "“Novel Cyclophilin Inhibitor Decreases Cell Proliferation and Tumor Growth in Models of Hepatocellular Carcinoma” (Cancers, 2021)", "key": {"HEPG2 [1]": {"tested_on": "HEPG2", "test": "Cell proliferation and viability with Acridine Orange and DAPI", "type": "cell-based, human", "procedure": "(§1) For the quantification of the total cell number, cells were seeded at a concentration of 6000 cells/well for HEPG2 and 9000 cells/well for HUH7 in a 24-well plate. After 24 h of seeding, cells were treated with 10, 50 or 100 nM of NV651 or DMSO as the control dissolved in their correspondent media, fresh media with compound was added every 72 h. After 72 h of treatment, cells were harvested and stained with DAPI (Santa Cruz Biotechnology, Cat# SC3598, Dallas, TX, USA) and Acridine Orange (AO) (Sigma-Aldrich, Cat# A9231-10ML, St. Louis, MO, USA) at final concentrations of 5 µg/mL and 1.5 µg/mL, respectively. Quantification of the total cell number and nonviable cells was performed every day up to the tenth day. Total cell number was quantified with acridine orange staining, and the cell viability in each sample was quantified by the ratio between cells positive for DAPI staining (nonpermeable dye) and acridine orange staining."}, "HUH7 [2]": {"tested_on": "HUH7", "test": "Cell proliferation and viability with Acridine Orange and DAPI", "type": "cell-based, human", "procedure": "as §1"}, "[3]": {"test": "Pharmacokinetics IV and PO", "type": "in vivo", "conditions": "male, CD1, mouse, blood, mice; for Tmax: read-out: time of peak concentration in blood (converted)", "procedure": "These experiments were performed by Shanghai ChemPartner Co., Ltd. (Shanghai, China) following the guidance described above.\nThirty microliters of blood or liver samples were mixed with 100-µL Pierce Acetonitrile (ACN, Thermo Fisher Scientific, Waltham, MA, USA) containing 20-ng/mL IS (702) used as the internal standard. An aliquot of 10-µL supernatant was injected for LC-MS/MS analysis using LCMSMS-003 (API4000).\nNV651 was prepared as described above. Six- to eight-week-old male mice were treated IV with 0.5 mg/kg or PO with 5 mg/kg, with 3 mice per group. Blood and plasma samples were taken pre-dose; at 5 min of treatment and at 1, 2, 4, 8 or 24 h. Analysis was performed as indicated above."}, "CypD": {"target": "CypD (Homo sapiens, UniProt P30405)", "sequence (P30405 30-207)": "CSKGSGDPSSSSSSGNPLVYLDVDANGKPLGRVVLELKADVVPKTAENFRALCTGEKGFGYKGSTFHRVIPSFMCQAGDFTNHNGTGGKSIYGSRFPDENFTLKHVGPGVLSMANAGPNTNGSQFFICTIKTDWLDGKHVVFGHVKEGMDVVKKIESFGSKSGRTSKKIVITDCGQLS", "test": "PPIase activity assay (chymotrypsin-coupled)", "type": "biochemical", "conditions": "free-cell assay; Cyp equilibrated 1 h at 5 °C with inhibitor; read-out: absolute IC50, PPIase activity CypD", "procedure": "(§2) The PPIase activity of CypA, CypB, CypD and Cyp40 was determined by following the rate of hydrolysis of N-succinyl-Ala-Ala-Pro-Phe-p-nitroanilide by chymotrypsin, a digestive enzyme that only hydrolyzes the trans form of the peptide. Therefore, the hydrolysis of the cis form, the concentration of which is maximized by using a stock dissolved in trifluoroethanol containing 470-mM LiCl, is only possible with the isomerization from the cis to the trans form. […] The reaction was started with the peptide addition, and the change in absorbance was monitored spectrophotometrically at a 6-s interval for 6 min. The blank rates of hydrolysis (in the absence of Cyps) were subtracted from the rates in the presence of Cyps. The initial rates of the enzymatic reaction were analyzed by a first-order regression analysis of the time course of the change in absorbance."}, "Cyp40": {"target": "Cyp40 (Homo sapiens, UniProt Q08752)", "sequence (Q08752 whole entry)": "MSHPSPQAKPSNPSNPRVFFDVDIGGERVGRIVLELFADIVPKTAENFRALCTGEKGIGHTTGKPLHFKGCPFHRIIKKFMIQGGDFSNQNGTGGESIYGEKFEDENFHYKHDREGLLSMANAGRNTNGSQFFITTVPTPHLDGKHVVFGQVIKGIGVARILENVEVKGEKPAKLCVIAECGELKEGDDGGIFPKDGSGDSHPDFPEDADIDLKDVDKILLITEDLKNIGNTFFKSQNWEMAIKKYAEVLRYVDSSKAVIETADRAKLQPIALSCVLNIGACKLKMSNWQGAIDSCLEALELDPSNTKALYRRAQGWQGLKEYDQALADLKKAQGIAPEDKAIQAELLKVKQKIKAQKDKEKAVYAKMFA", "test": "PPIase activity assay (chymotrypsin-coupled)", "type": "biochemical", "conditions": "free-cell assay; Cyp equilibrated 1 h at 5 °C with inhibitor; read-out: absolute IC50, PPIase activity Cyp40", "procedure": "as §2"}, "CypB": {"target": "CypB (Homo sapiens, UniProt P23284)", "sequence (P23284 34-216)": "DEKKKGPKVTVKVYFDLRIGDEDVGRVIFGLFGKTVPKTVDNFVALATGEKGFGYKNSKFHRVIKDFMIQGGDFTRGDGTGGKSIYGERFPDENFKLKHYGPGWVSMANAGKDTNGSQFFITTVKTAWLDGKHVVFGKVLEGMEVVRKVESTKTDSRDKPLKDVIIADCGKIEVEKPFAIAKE", "test": "PPIase activity assay (chymotrypsin-coupled)", "type": "biochemical", "conditions": "free-cell assay; Cyp equilibrated 1 h at 5 °C with inhibitor; read-out: absolute IC50, PPIase activity CypB", "procedure": "as §2"}, "CypA": {"target": "CypA (Homo sapiens, UniProt P62937)", "sequence (P62937 whole entry)": "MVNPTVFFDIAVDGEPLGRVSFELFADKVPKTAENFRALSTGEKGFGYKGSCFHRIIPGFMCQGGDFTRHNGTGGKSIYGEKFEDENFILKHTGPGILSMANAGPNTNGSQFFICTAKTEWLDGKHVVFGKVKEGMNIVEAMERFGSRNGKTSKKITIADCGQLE", "test": "PPIase activity assay (chymotrypsin-coupled)", "type": "biochemical", "conditions": "free-cell assay; Cyp equilibrated 1 h at 5 °C with inhibitor; read-out: absolute IC50, PPIase activity CypA", "procedure": "as §2"}, "[4]": {"test": "Stability of NV651 solution in 25% buffered HPbCD", "type": "physicochemical", "conditions": "stored at 4 °C", "procedure": "Twenty-five percent buffered Hydroxy Propyl beta Cyclodextrin (HPbCD) was prepared from Hydroxy Propyl beta Cyclodextrin (Roquette, Lestrem, France), EDTA solution and phosphate buffer at a pH of 7.4, filtered with a […] (VWR, Cat# 28145-483, Radnor, PA, USA) and stored at 4 °C. NV651 was prepared at a concentration of 10 mg/kg with 25% buffered HPbCD (vehicle). NV651 solution was sonicated for 30 min in a water bath sonicator (Bioruptor, Diagenode, Denville, NJ, USA) and shaken for up to an hour, followed by a secondary sterilization with a 0.2-µm filter. NV651 solution was stored at 4 °C up to 2 weeks, with stability confirmed up to 3 weeks."}, "HEPG2 [5]": {"tested_on": "HEPG2", "test": "Cell cycle analysis (PI DNA content)", "type": "cell-based, human", "procedure": "(§3) For the quantification of the DNA content, cells were treated with DMSO or 100 nM of NV651. Samples were collected at 24, 48, 72 and 96 h, followed by fixation with 70% (v/v) ethanol. DNA was stained with 50-µg/mL PI. Due to the capacity of PI to stain any type of nucleotide, RNase (100 µg/mL) (Sigma-Aldrich, Cat# R4875-100MG, St. Louis, MO, USA) was also added. To quantify the apoptotic cell fraction, we measured the subG1 fraction in the cell cycle.\n(§4) Data was acquired with FACSverse Instrument and analyzed with FCS Express 6 Flow Research."}, "HUH7 [6]": {"tested_on": "HUH7", "test": "Cell cycle analysis (PI DNA content)", "type": "cell-based, human", "procedure": "as §3, §4"}}, "note": "Read-outs that look alike come from different tables or passages of the source."}
{"smiles": "CC(=O)CCC1C(=O)NC(C(C)C)C(=O)NC(Cc2cc(O)cc(F)c2)C(=O)N2CCCC(N2)C(=O)OC(C(C)=CC=CC(=O)OC(C)(C)C)CC=CC=CC(O)C(C)C1O", "note": "(stereo not drawn) [NV651]", "values": [{"measurement": "doubling time, elevated to", "setting": "HEPG2 [1]; different concentrations of NV651 up to 10 days, from 43 h", "value": 827, "unit": "h"}, {"measurement": "cell viability (DAPI+ / AO+ cells)", "setting": "HEPG2 [1]; up to 10 days of exposure", "value": "could not observe any differences"}, {"measurement": "cell viability (DAPI+ / AO+ cells)", "setting": "HUH7 [2]; after 10 days of exposure", "value": "significant decrease"}, {"measurement": "doubling time, elevated to", "setting": "HUH7 [2]; different concentrations of NV651 up to 10 days, from 35 h", "value": 155, "unit": "h"}, {"measurement": "bioavailability", "setting": "[3]; 0.5 mg/kg IV vs 5 mg/kg PO", "value": 2, "unit": "%"}, {"measurement": "Tmax", "setting": "[3]; 0.5 mg/kg IV", "value": "~5", "unit": "min"}, {"measurement": "Tmax", "setting": "[3]; 5 mg/kg PO", "value": "~60", "unit": "min"}, {"measurement": "IC50", "setting": "CypD", "value": 0.842, "unit": "nM"}, {"measurement": "IC50", "setting": "Cyp40", "value": 0.821, "unit": "nM"}, {"measurement": "IC50", "setting": "CypB", "value": 0.824, "unit": "nM"}, {"measurement": "IC50", "setting": "CypA", "value": 0.49, "unit": "nM"}, {"measurement": "stability of NV651 solution", "setting": "[4]", "value": "up to 3 weeks"}, {"measurement": "cell size (FSC-A)", "setting": "HEPG2 [5]; 100 nM NV651", "value": "increased trend in the cell size"}, {"measurement": "cell cycle distribution (DNA content)", "setting": "HEPG2 [5]; 100 nM NV651, after 48–72 h", "value": "block in the G2/M phase"}, {"measurement": "subG1 fraction (apoptotic cells)", "setting": "HEPG2 [5]; 100 nM NV651 up to 96 h", "value": "statistically significant increase in cell death"}, {"measurement": "cell size (FSC-A)", "setting": "HUH7 [6]; 100 nM NV651", "value": "increased trend in the cell size"}, {"measurement": "cell cycle distribution (DNA content)", "setting": "HUH7 [6]; 100 nM NV651, after 48–72 h", "value": "block in the G2/M phase"}, {"measurement": "subG1 fraction (apoptotic cells)", "setting": "HUH7 [6]; 100 nM NV651 up to 96 h", "value": "statistically significant increase in cell death"}]}
